The values below come from paper PMC7397737 (Chemical research in toxicology, 2019).

Data set [1] concerns CYPs in pooled mouse liver microsomes (MLMs). The data set is described as follows: Chemical inhibition of 1′-hydroxyelemicin formation in liver microsomes. The format is in vitro ADME. Particulars: inhibitor 1 μM (CYP1A1/2); 50 μM elemicin; MLMs 0.5 mg/mL; 40 min. A general note: Microsomes from liver hold many membrane-bound enzymes, among them those of drug oxidation.
For another data set, the system named is C57BL/6J mice. The data set is described as follows: Experiment 5: alpha-naphthoflavone with elemicin in mice. It is filed as in vivo, mouse. Particulars: alpha-naphthoflavone 80 mg/kg/day i.p. + elemicin 500 mg/kg oral for 7 days.

Take `O=c1cc(-c2ccccc2)oc2c1ccc1ccccc12` [α-naphthoflavone]: the “inhibitory effect against 1′-hydroxyelemicin generation” value in data set [1] is given as “relative higher inhibitory effects”. In addition, in the data set on C57BL/6J mice, the elemicin-induced hepatomegaly result is reported as “significantly alleviate”.
